Measured values: patent US5709816A, “Singlet oxygen quenchers and external compositions containing the same” (Kao Corporation, priority 1899, dated 1998)

Columns and labels:
[1] = Quenching rate constant of singlet oxygen (Rose Bengal photosensitization, Stern-Volmer method); assay type: biochemical; conditions: for weakening of the 1,270 nm singlet oxygen emission peak with increasing quencher concentration: 50 μM ethanol solution of Rose Bengal, 490-590 nm irradiation
From the text: Method for measuring the quenching rate constant of singlet oxygen:
The apparatus used for measuring singlet oxygen included the following parts.
(1) Light source: Xenon lamp (150 W) (Atago Bussan K.K.)
(2) Filters on the excitation side: Water filter (optical path: 50 mm), Color glass filters (HA-15, HA-30, G-533, manufactured by Hoya K.K.)
(3) Sample: Square quartz cell (2×10×50 mm)
(4) Filters on the detection side: Color glass filter (IR-85, manufactured by Hoya K.K.), Interference filter (Nippon Shinku-Kogaku K.K.)
(5) Spectrometer and detector: Spectrometer (HR-320, Jovin Yvon Co.), Germanium (Ge) detector (EO-817L, a type using liquid nitrogen as a coolant, North coast Scientic Corporation)
(6) Amplifier: Light chopper (5584, NF Co.), Frequency filter (E-3201B, NF Co.), Super low noise amplifier (SA-200F3, NF Co.), Digital storage oscilloscope (2431L, SONY Tektronix Co.)
(7) Recording section: Personal computer (PC-9801 BA, NEC Corporation), GP-IB interface
(8) Oxygen concentration control unit: High-pressure oxygen cylinder
Using this apparatus, light was irradiated onto a system which is known to produce singlet oxygen through photochemical sensitization. The wavelength of the light was within an appropriate absorption range of the photosensitizer employed. weak emission in the near infrared region, which is specific to singlet oxygen, was measured for its intensity I. Subsequently, the emission obtained when a test substance was added to the same system was measured. From the decrease in emission intensity I, the quenching rate constant of singlet oxygen of the test substance could be measured in accordance with the Stern-Volmer method. However, since some substances react with the photochemical sensitization system to cause errors in the measurements, the method described by R. H. Young et al., Photochem. Photobiol., vol. 17, p. 233 (1973) was applied to correct this contribution quenching.
A 50 μM ethanol solution of Rose Bengal in a 400 μl square quartz cell was used as a test substance.
First, the light within 490-590 nm, which is appropriate for the maximum absorption wavelength of Rose Bengal, was irradiated onto the cell containing the test substance.
Similarly, another system was subjected to measurement in which a typical singlet oxygen quencher, β-carotene, sodium azide,or 1,4-diazabicyclo[2.2.2]octane, had been added.
Measurement of the quenching rate constant of singlet oxygen: An ethanol solution of each of compounds obtained in the above-described Synthesis Examples and N-phenyldiethanolamine (compound (36)), with Rose Bengal, as a conventional photosensitizer, was used for the measurement of the quenching rate constants of singlet oxygen.
First, emission intensity I of a mixture solution containing 50 μM of Rose Bengal and the above compounds were measured under saturated air conditions. The ratio IOair /Iair was calculated, wherein Iair represents the emission intensity measured for a solution with a test substance at a concentration of Cq (Iair), and Oair represents the emission intensity measured for a solution without test substance. Next, under saturated oxygen conditions, emission intensity was measured for a solution with a test substance at the same concentration Cq (I302). Using these emission intensities, the correction term Fair was obtained in accordance with the following equation.
Interference attributed to the test substance with respect to the photosensitization reaction system was corrected by multiplying IOair /Iair by Fair.
Using the following equation:
(IOair /Iair)'=1+kq ·.tau.·Cq

[2] = system: skin of white guinea pigs; experiment: Inhibition of erythema formation (UV-A/UV-B irradiation); assay type: in vivo; conditions: Cavia porcellus, light or radiation study, topical; 5 wt. % in ethanol; UV-A/UV-B 40 J/cm^2; determined after 1 day and 2 days; read-out: Erythema inhibition rate
From the text: Inhibition of erythema formation
The hair of white guinea pigs (8 weeks old, female) hair was removed by shaving, and an ethanol solution containing a test substance (5 wt. %) was applied to the shaved part of each animal. A mixture of UV-A/UV-B (40 J/cm^2, measured at 365 nm using a UV-radiometer UVR-305/365-D, Torex Co.) was irradiated onto the back of each guinea pig using a solar simulator Model 1600 (Solar Light Co.). After 1 day and 2 days of irradiation, the erythema formation was visually determined by the standards of the Japanese Dermatological Association to obtain erythema inhibition ratios.

[3] = system: sunburn cells in skin of ICR/HR mice; experiment: Inhibition of sunburn cell formation (UV-B irradiation); assay type: in vivo; conditions: 1 wt. % in ethanol, UV-B 100 mJ/cm^2, 24 hours later; for inhibition in vivo at 1 %: Mus musculus, light or radiation study, topical, read-out: Inhibition ratio regarding sunburn cell formation
From the text: Inhibition of sunburn cell formation
Ethanol solution of a test substance (1 wt. %) was applied onto the skin of ICR/HR mice. UV-B (100 mJ/cm^2) was irradiated onto the skin (health lamp SE20/SLE, Toshiba). Twenty-four hours later, the skin was biopsied and stained using hematoxylin & eosin, after which the number of sunburn cells were counted under microscope.

[4] = system: skin of colored guinea pigs; experiment: Inhibition of delayed darkening (UV-A/UV-B irradiation); assay type: in vivo; conditions: 7 wt. % in ethanol; UV-A/UV-B 50 J/cm^2; 14 days after irradiation; color difference meter
Procedure: Inhibition of delayed darkening
The hair of colored guinea pigs (8 week old, female) hair was removed, and an ethanol solution containing a test substance (7 wt. %) was applied to the skin. A mixture of UV- A/UV-B rays (50 J/cm^2, measured at 365 nm using a UV-radiometer UVR-305/365-D, Torex Co.) was irradiated onto the back of each guinea pig using a solar simulator. Fourteen days after irradiation, delayed darkening inhibition ratios were measured using a color difference meter (Model 1001P. Nippon Kogyo Co., Ltd.).

[5] = system: dopachrome formation from dopa; experiment: Inhibition of immediate pigment darkening (dopachrome formation from dopa, porphyrin + UV); assay type: biochemical; conditions: 0.5 wt. % in ethanol; dopa 1 mM, porphyrin 5 mM; UV-A/UV-B 3 J/cm^2; absorption at 475 nm
Procedure: Inhibition of immediate pigment darkening
An ethanol solution containing a test substance (0.5 wt. %) was added to a mixture of dopa (1 mM) and porphyrin (5 mM). A mixture of UV-A/UV-B (3 J/cm^2, measured at 365 nm) was irradiated onto the resultant mixture using a solar simulator. The amount of dopachrome formed by irradiation was determined by measuring absorption at 475 nm.

skin of ICR/HR mice = experiment: Inhibition of wrinkle formation in the skin of mice (UV-B, 16 weeks); assay type: in vivo, ICR/HR mouse; conditions: 1 wt. % in ethanol, 1 MED UV-B five times per week over sixteen weeks; for inhibition in vivo at 1 %: Mus musculus, topical, 2688 h
From the text: Inhibition of wrinkle formation in the skin of mice
To the back of each ICR/HR mouse (female, 6 weeks old), an ethanol solution containing a test substance (1 wt. %) was applied. One (1) MED of UV-B was irradiated thereto using a health lamp SL20-SLE (Toshiba). Irradiation was repeated five times per week over sixteen weeks. Wrinkle formation was visually scored using the following five rankings.
1: Mild and questionable wrinkles are observed
2: Mild but clear and definite wrinkles are observed
3: Moderate wrinkles are observed
4: Severe wrinkles are observed
Using the above rankings, wrinkle formations were scored and the inhibition ratios were determined by the division by the blank score.

[6] = system: cultured human fibroblasts; experiment: Inhibition of lipid peroxide formation in cultured human fibroblasts (TBA method); assay type: cell-based; conditions: 0.01 wt. % in ethanol, 100 mM porphyrin; for inhibition at 0.01 wt%: Homo sapiens, Fibroblast, light or radiation study, UV-A/UV-B 1 J/cm^2, read-out: Inhibition ratio regarding lipid peroxide formation
Procedure: Inhibition of lipid peroxide formation
Cultured human fibroblasts were combined with 100 mM porphyrin and a test substance (0.01 wt. %, in ethanol). A mixture of UV-A/UV-B rays (1 J/cm^2, measurements performed at 365 nm) was irradiated onto the resultant cell culture using a solar simulator. The fibroblasts were collected after the trypsin treatment, then extracted hydrophobic substances using acetone. The extracted substances were dried under nitrogen to prepare cellular lipid samples. A TBA method was used to measure lipid peroxides in cells and inhibition ratio by a test substance.

collagen = experiment: Inhibition of protein denaturation (collagen crosslinking, porphyrin + UV); assay type: biochemical; conditions: 0.1 wt. % in ethanol; collagen 0.5 mg/ml, porphyrin 100 mM; UV-A/UV-B 3 J/cm^2; SDS-PAGE
Procedure: Inhibition of protein denaturation
An ethanol solution containing a test substance (0.1 wt. %) was added to a mixture of collagen (0.5 mg/ml) and 2 porphyrin (100 mM). A mixture of UV-A/UV-B (3 J/cm^2, measured at 365 nm) was irradiated onto the resultant mixture using a solar simulator. The irradiated mixture was applied to SDS-PAGE electrophoresis, and collagen crosslinking inhibition ratios were measured.

[7] = system: E. coli vector pUC119 DNA; assay type: biochemical; conditions: 0.01 wt. % in ethanol; 100 mM porphyrin; UV-A/UV-B 3 J/cm^2; agarose gel electrophoresis
Procedure: To a mixture of […] E. coli vector pUC119 DNA and 100 mM porphyrin, an ethanol solution containing a test substance (0.01 wt. %) was added. A mixture of UV-A/UV-B (3 J/cm^2, measured at 365 nm) was irradiated onto the resultant DNA mixture using a solar simulator. A 2.5-fold amount of ethanol and a 0.1-fold amount of 5M sodium acetate were added and the DNA was precipitated. The DNA pellet was dissolved in a TE buffer, and analyzed through agarose gel electrophoresis. Inhibition of DNA single strand breaks formation was measured.

skin of hairless mice [8] = experiment: Inhibition of wrinkle formation in hairless mice (visual wrinkle index); assay type: in vivo, hairless mouse (HR/ICR); conditions: 5 wt. % in ethanol, 80 μl; UV-B five times per week, sixteen weeks; scale 1 (no wrinkles) to 4; control (ethanol) 3.78 ± 0.08
Procedure: (1) Inhibition of wrinkle formation in hairless mice.
(§1) To each hairless mouse (HR/ICR, 6 weeks old when the test started), a test substance (5 wt. %, in ethanol) was applied. (80 μl). Approximately 10 minutes later, UV-B was irradiated thereto using 6 bulbs of health lamps (SL20-SLE, Toshiba) so that the dose per irradiation was not greater than 1 MED. Irradiation was repeated five times per week over sixteen weeks. While the irradiation energy was measured using a UV-radiometer (UVR-305/S65D, Tokyo Optical K.K.) so that the dose per irradiation was not greater than 1 MED, energy was irradiated at an intensity of 0.28 mW/cm^2, with the total dose. 100 mJ/cm^2. As a control, a case where only ethanol was applied was similarly tested in a manner performed on the test substances.
After completion of the testing, the level of wrinkle formation was visually determined using the following standards (wrinkle indices).
1: No wrinkles are formed
2: Small amounts of wrinkles are formed
3: Moderate amounts of wrinkles are formed
4: Considerable amounts of wrinkles are formed

skin of hairless mice [9] = experiment: Analysis of wrinkles in hairless mice (image analysis of skin replicas); assay type: in vivo, hairless mouse (HR/ICR); conditions: 5 wt. % in ethanol, 80 μl; UV-B sixteen weeks; shadow area of skin replicas, 30°; control (ethanol) 6.46 ± 0.68
Procedure: as §1
In order to analyze the wrinkles formed in the above step (1) in detail, replicas of different skin areas (3 replicas per mouse) each having a round shape with a diameter of 1 cm were obtained using a hydrophilic exaflex, hydrophilic vinyl silicone imaging agent. Each replica was placed horizontally and lightened from an angle of 30°. The area of shadows formed by wrinkles was analyzed as the area ratio using an image analyzing apparatus.

| SMILES | weakening of the 1,270 nm singlet oxygen emission peak with increasing quencher concentration [1] | ΔΔL value [4] | Inhibition ratio regarding immediate blackening [5] | Protein denaturation inhibition ratio (collagen) | Prevention of DNA damage [7] | inhibition at 0.01 wt% [6] | other results |
| --- | --- | --- | --- | --- | --- | --- | --- |
| C1CN2CCN1CC2 [1,4-diazabicyclo[2.2.2]octane, reference compound] | the peak at 1,270 nm weakened | – | – | – | – | – | – |
| COC(=O)C=Cc1ccc(OC)cc1 [Comparative compound (1), Methyl p-methoxycinnamate, reference compound] | – | 0.9 | – | – | – | – | inhibition in vivo at 5 % [2]: 31%; inhibition in vivo at 1 % [3]: 37% |
| [Cl][Cd][Cl] [Comparative compound (2), Cadmium chloride, reference compound] | – | – | – | – | – | – | Inhibition ratio regarding sunburn cell formation [3]: 67% |
| Oc1ccc(O)cc1 [Comparative compound (3), Hydroquinone, reference compound] | – | 0.7 | – | – | – | – | – |
| [N-]=[N+]=[N-].[Na+] [Comparative compound (4), Sodium azide, reference compound] | the peak at 1,270 nm weakened | – | 48% | 45% | 53% | – | Inhibition of wrinkle formation (skin of ICR/HR mice): 28%; Inhibition ratio regarding lipid peroxide formation ([6]; UV-A/UV-B 1 J/cm^2): 37 |
| O=C1O[C@H]([C@@H](O)CO)C(O)=C1O [Comparative compound (5), Ascorbic acid, reference compound] | – | – | 42% | – | 21% | 43% | inhibition in vivo at 1 % (skin of ICR/HR mice): 11% |
| Cc1c(C)c2c(c(C)c1O)CCC(C)(CCCC(C)CCCC(C)CCCC(C)C)O2 (stereo not drawn) [Comparative compound (6), α-Tocopherol, reference compound] | – | – | – | 30% | 34% | 42% | inhibition in vivo at 1 % (skin of ICR/HR mice): 34% |
| CCCCN(Cc1ccco1)Cc1ccco1 [Compound (22), N,N-bisfurfurylbutylamine] | – | – | – | – | – | – | Wrinkle index (skin of hairless mice [8]): 2.34 ± 0.16; Area ratio of image analysis (skin of hairless mice [9]): 3.37 ± 0.30% |
| OCCN(CCO)c1ccccc1 [Compound (36), N-phenyldiethanolamine] | – | 1.2 | 64% | 69% | 58% | 46% | inhibition in vivo at 5 % [2]: 48%; Extinction rate constant of singlet oxygen ([1]; kq, ethanol solution, 50 μM Rose Bengal, singlet oxygen lifetime taken as 10 μs): 5.8e+07 M⁻¹ s⁻¹; inhibition in vivo at 1 % [3]: 62% |
| CC1=C(/C=C/C(C)=C/C=C/C(C)=C/C=C/C=C(C)/C=C/C=C(C)/C=C/C2=C(C)CCCC2(C)C)C(C)(C)CCC1 [β-carotene, reference compound] | the peak at 1,270 nm weakened | – | – | – | – | – | – |
